Test results taken from PMC4580987, “Catalytic site inhibition of insulin-degrading enzyme by a small molecule induces glucose intolerance in mice” (Nature Communications, 2015).
pIC50: −log10 of the molar value. Where “and” joins values, the source holds several entries; their conditions need not be identical. Equal values may be shown once.

Columns and labels:
[1] = Caco-2 permeation assay; format: in vitro ADME; conditions: human, 37 °C, pH 7.4/7.4
Source text: Caco-2 cells were provided by ATCC and checked for mycoplasma contamination. These cells are not listed by ICLAC as misidentified cell lines (October 3rd, 2014). A total of 0.4 × 10^5 Caco-2 cells (ATCC no. […] The paracellular barrier characteristics of Caco-2 cells monolayer was monitored using (i) measurement of […] and (ii) measurement of the permeability to the non-permeant fluorescent molecule, Lucifer Yellow. Caco-2 cells were trypsinized after 3 days of incubation while they cover 80–90% of the flask and seeded at a density of 5 × 10^5 in 75 cm^2 flasks in complete medium supplemented with 73 nM (∼0.04 μg ml^−1) of the antibacterial puromycin (3′-[α-amino-p-methoxyhydrocinnamamido]-3′-deoxy-N,Ndimethyladenosine dihydrochloride). After 5–6 days, Caco-2 cells reach high cells density (>0.5 × 10^5 cells per cm^2) and are then passage into cell HTS 24-well plates with 0.4 μm polycarbonate membrane inserts. Cells were seeded at 600,000 cells per cm^2 (200,000 cells per insert) and cultivated for 6 days in complete medium with puromycin. Media was replaced every second days. Compound solutions were prepared in HEPES-buffered Ringerŕs (RH) solution (NaCl 150 mM, KCl 5.2 mM, CaCl2 2.2 mM, MgCl2 0.2 mM, NaHCO3 6 mM, Glucose 2.8 mM, HEPES 5 mM, water for injection), pH=7.4 at a final concentration of 1 or 10 μM for tested drugs. For A→B transport experiment, 0.2 ml of the compound solution was placed on the apical side of the cells and samples were taken from the basolateral compartment. For B→A transport experiment 0.8 ml of the solution was placed on the basolateral side of the cells and samples were taken from apical side. Transport Studies were done in Transwell polycarbonate: HTS 24-well plate inserts (surface area: 0.33 cm^2–0.4 μm pore size). Cells were equilibrated for 10 min in transport buffer prior to the transport experiment, and then incubations with compounds were performed at 37 °C under agitation. After 1 h aliquots were taken from each compartment and sampled in 96-well plates with glass insert. Permeation and the % of recovery are calculated using the formulas below: […]

[2] = Microsomal stability; format: in vitro ADME; conditions: male, CD-1, pH 7.4, mouse liver microsomes, read-out: Microsomal stability m (t1/2)
Experimental: Male mouse (CD-1) liver microsomes (BD Gentest) were used. All incubations were performed in duplicate in a shaking water bath at 37 °C. The incubation mixtures contained 1 μM compound with 1% methanol used as a vehicle, mouse liver microsomes (0.6 mg of microsomal protein per mL), 5 mM MgCl2, 1 mM NADP, 5 mM glucose 6-phosphate, 0.4 U ml^−1 glucose 6-phosphate dehydrogenase, and 50 mM potassium phosphate buffer (pH 7.4) in a final volume of 1.5 ml. Samples were taken at 5, 10, 20, 30 and 40 min after microsome addition, and reactions stopped by adding ice-cold acetonitrile containing 1 μM internal standard (four volumes). Centrifugation of the samples for 10 min at 10,000g and 4 °C allowed to pellet precipitated microsomal proteins, and supernatant was subjected LC−MS/MS analysis, in acetonitrile containing 1 μM internal standard. Each compound was quantified by converting the corresponding analyte/internal standard peak area ratios to percentage drug remaining, using the initial ratio values in control incubations as 100%. Propranolol, known as a high hepatic clearance drug in rodents, was used as a quality-control compound for the microsomal incubations. […] The slope of the linear regression from log percentage remaining versus incubation time relationships (-k) was used in the conversion to in vitro t1/2 values by: t1/2=−0.693/k.

[3] = biological target: T1, recombinant human ECE-1 (Homo sapiens, UniProt P42892); assay: Endothelin-converting enzyme inhibition (CEREP); format: biochemical; conditions: means of two experiments minimum, s.d.±10%; read-out: Selectivity IC50 hECE
T1 construct: host or cells: NSO cells
T1 sequence (P42892 1-770): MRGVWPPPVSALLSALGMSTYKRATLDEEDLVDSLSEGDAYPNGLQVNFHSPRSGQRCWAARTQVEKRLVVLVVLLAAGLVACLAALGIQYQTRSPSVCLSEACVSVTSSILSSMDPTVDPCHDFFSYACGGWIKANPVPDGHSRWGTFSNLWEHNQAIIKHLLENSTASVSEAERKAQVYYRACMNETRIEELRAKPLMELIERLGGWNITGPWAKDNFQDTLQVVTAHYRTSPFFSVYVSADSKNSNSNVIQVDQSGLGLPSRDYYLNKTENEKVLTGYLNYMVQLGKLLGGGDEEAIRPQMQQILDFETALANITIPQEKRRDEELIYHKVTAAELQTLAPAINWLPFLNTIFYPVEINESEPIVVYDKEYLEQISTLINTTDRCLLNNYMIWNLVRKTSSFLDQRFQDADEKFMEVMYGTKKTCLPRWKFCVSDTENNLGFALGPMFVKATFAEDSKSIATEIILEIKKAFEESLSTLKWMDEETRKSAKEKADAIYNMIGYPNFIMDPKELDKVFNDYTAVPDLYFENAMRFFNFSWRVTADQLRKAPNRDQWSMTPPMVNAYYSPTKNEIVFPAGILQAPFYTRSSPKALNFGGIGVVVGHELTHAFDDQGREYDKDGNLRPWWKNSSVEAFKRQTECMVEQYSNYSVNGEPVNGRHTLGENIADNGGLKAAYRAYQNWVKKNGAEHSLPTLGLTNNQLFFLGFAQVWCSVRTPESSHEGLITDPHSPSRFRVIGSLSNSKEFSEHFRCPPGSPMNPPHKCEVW

[4] = Pharmacokinetics in mice, intraperitoneal; format: in vivo; conditions: C57Bl6/N, mouse, plasma, 30 mg kg^−1, ip, male mice
Experimental: Three mice per time point were anesthetized with isoflurane and aliquots taken from the retroorbital sinus using sampling heparinated tubes (4 °C) at 10, 20, 30 min, 1, 2 and 4 h after administration of a single dose of ligands. The blood samples were centrifuged (5,000g, 15 min) for plasma separation. Plasma samples were thawed on ice. Aliquots of 50 μl were precipitated with 450 μl of ice-cold acetonitrile containing (R)-N-[3-(1-Hydroxycarbamoylmethyl-2-naphthalen-2-yl-ethyl)-3H-[1,2,3]triazol-4-ylmethyl]-benzamide (0.5 μM) used as internal standard. The samples were vigorously mixed with a vortex and centrifuged at 10,000 r.p.m. at 4 °C for 10 min, and the supernatants were transferred into tubes for LC−MS−MS analysis (Supplementary Table 2). Spiked standard solutions (10, 50, 100, 500, 1,000, 5,000, 10,000 and 50,000 nM) were prepared the same way. The protocol was approved by the ethical comitee CEEA Nord Pas de Calais (CEEA75).

`O=C(C[C@@H](Cc1ccc2ccccc2c1)n1cc(CNC(=O)c2ccc(F)cc2)nn1)NO` [Compound 1] gave a Papp A→B at 1 h, 1 μM ([1]; Caco-2, A→B, 1 μM) of 3.3 ×10⁻⁶ cm/s, a Papp A→B at 1 h, 10 μM ([1]; Caco-2, A→B, 10 μM) of 2.4 ×10⁻⁶ cm/s and a Papp B→A at 1 h, 1 μM ([1]; Caco-2, B→A, 1 μM) of 19 ×10⁻⁶ cm/s. For the same molecule, the Papp B→A at 1 h, 10 μM ([1]; Caco-2, B→A, 10 μM) was 17 ×10⁻⁶ cm/s, the half-life at 1 μM [2] was 20 min and the pIC50 [3] was 5.19. It also gave a Tmax [4] of 10 min, a half-life [4] of 80 min and an AUC(0-t) ([4]; read-out: AUC0→4h) of 4270 ng·h/mL. For the same molecule, the Cmax ([4]; DMSO solution) was 4100 ng/mL and 9.2 µM.
